Results: publication PMC3463134 (Chembiochem : a European journal of chemical biology, 2012)

Legend:
KtzI = target: T1, KtzI (Kutzneria sp. 744, UniProt A8CF85); assay: NADPH oxidation assay; format: biochemical; details: FAD, non-substrate effector (uncoupled NADPH oxidation)
T1 sequence (A8CF85 1-424): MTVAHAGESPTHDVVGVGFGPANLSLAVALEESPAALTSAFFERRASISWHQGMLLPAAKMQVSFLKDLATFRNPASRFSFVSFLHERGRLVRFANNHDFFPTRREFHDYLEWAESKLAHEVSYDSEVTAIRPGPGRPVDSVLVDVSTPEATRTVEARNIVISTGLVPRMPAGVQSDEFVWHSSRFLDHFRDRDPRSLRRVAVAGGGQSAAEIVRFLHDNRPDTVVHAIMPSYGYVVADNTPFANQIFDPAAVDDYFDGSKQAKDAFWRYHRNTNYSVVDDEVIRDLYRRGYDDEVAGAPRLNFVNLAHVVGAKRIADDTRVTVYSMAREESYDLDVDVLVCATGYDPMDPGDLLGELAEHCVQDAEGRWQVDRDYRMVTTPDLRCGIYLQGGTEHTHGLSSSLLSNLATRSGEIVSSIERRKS

purified protein = substrate: NCCC[C@H](N)C(=O)O; assay: purified protein; details: FAD cofactor; NAD(P)H and O2 cosubstrates; apparent kcat

| Molecule | NADPH oxidation assay (KtzI) | Km (purified protein) | kcat (purified protein) |
| --- | --- | --- | --- |
| NCCCC[C@H](N)C(=O)O [L-Lys] | L-Lys and D-Orn were observed to be non-substrate effectors of the enzyme |  |  |
| NCCC[C@@H](N)C(=O)O [D-Orn] | L-Lys and D-Orn were observed to be non-substrate effectors of the enzyme |  |  |
| KtzI (Kutzneria sp. 744) (protein) MTVAHAGESPTHDVVGVGFGPANLSLAVALEESPAALTSAFFERRASISWHQGMLLPAAKMQVSFLKDLATFRNPASRFSFVSFLHERGRLVRFANNHDFFPTRREFHDYLEWAESKLAHEVSYDSEVTAIRPGPGRPVDSVLVDVSTPEATRTVEARNIVISTGLVPRMPAGVQSDEFVWHSSRFLDHFRDRDPRSLRRVAVAGGGQSAAEIVRFLHDNRPDTVVHAIMPSYGYVVADNTPFANQIFDPAAVDDYFDGSKQAKDAFWRYHRNTNYSVVDDEVIRDLYRRGYDDEVAGAPRLNFVNLAHVVGAKRIADDTRVTVYSMAREESYDLDVDVLVCATGYDPMDPGDLLGELAEHCVQDAEGRWQVDRDYRMVTTPDLRCGIYLQGGTEHTHGLSSSLLSNLATRSGEIVSSIERRKS |  | 91 ± 8 µM | 0.116 ± 0.00217 s⁻¹ |
